# Experimental data: US20180251483A1, “THIOCYANATE SALTS FOR ANTI-INFLAMMATION” (National Jewish Health, priority 2015, published 2018)
# Legend:
# rat brain homogenates = assay: Iron/ascorbate-initiated lipid peroxidation of rat brain homogenates, TBARS assay; type: biochemical; conditions: comparison of the two salts
# Description: Legend: Cmpd 10150-Cl (circles); Cmpd 10150-SCN (boxes).
# The ability of the salts of the invention to inhibit lipid peroxidation was assessed as described by Ohkawa et al. (Anal. Biochem. 95:351 (1979)) and Yue et al. (J. Pharmacol. Exp. Ther. 263:92 (1992)). Iron and ascorbate can be used to initiate lipid peroxidation in tissue homogenates and the formation of thiobarbituric acid reactive species (TBARS) measured. Lipid peroxidation causes cell damage by radicals, which destroys lipids in cell membranes resulting in oxidative and inflammatory injury.
# Both the chloride and thiocyanate salts of 10150 have similar lipid peroxide inhibition. Lipid peroxidation of rat brain homogenates was initiated with iron/ascorbate in the presence or absence of various concentrations of 10150-Cl or 10150-SCN. Lipid peroxidation was quantified using the TBARS assay with malondialdehyde standards. The data was normalized and curve fitted to determine the inhibitory concentrations that decreased lipid peroxidation by one-half (IC50).
# [1] = Catalase activity: H2O2 consumption followed with a hydrogen peroxide selective electrode; type: biochemical
# Description: FIG. 4 is a line graph showing effects of 1 mM NaSCN on the consumption of H2O2 by 10150-Cl at a fixed concentration of 12.5 μM and various H2O2 concentrations. Legend: Cmpd 10150-Cl (circles); Cmpd 10150-Cl+SCN (1 mM) (triangles).
# To test whether SCN was acting as a competing substrate in the catalase activity one examined the change in 10150-Cl catalase activity by following the disappearance of H2O2 over time with a H2O2 selective electrode in the presence or absence of 1 mM NaSCN.
# Experimental Conditions: Effects of 1 mM NaSCN on the consumption of H2O2 by 10150-Cl was investigated at a fixed concentration of 12.5 μM and various H2O2 concentrations. H2O2 consumption was followed over time with a hydrogen peroxide selective electrode (HPO) using a free radical analyzer (WPI). Changes in pA were converted to H2O2 using a 5 point H2O2 standard curve. The data was fitted as a linear curve using Prizm software. The rate constant for 10150-Cl was 0.09±0.004 min^−1 and in the presence of 1 mM NaSCN was decreased to 0.02±0.004 min^−1.
# [2] = Oxygen formation from H2O2 followed with an oxygen selective electrode (catalase to haloperoxidase conversion); type: biochemical
# Description: FIG. 5 is a bar graph showing the inhibition of oxygen formation by 10150-Cl in the presence of hydrogen peroxide and thiocyanate. Bins (left to right); 25 uM Cmpd 10150; 50 uM Cmpd 10150. Legend: control (open); SCN 1 mM (closed).
# It was examined whether SCN was being utilized as a substrate in a peroxidase reaction by looking at the inhibition of oxygen formation. If 10150-Cl was utilizing SCN along with H2O2, then no oxygen would be generated (see Eq 2).
# To examine the rate of oxygen formation in the presence of 10150-Cl, H2O2 in the presence or absence of NaSCN, one utilized an oxygen selective electrode with a free radical analyzer (WPI). Changes in pA were converted to O2 using the difference of the O2 concentration in a saturated solution minus that of the solution made anaerobic by the addition of dithionite.
# Experimental Conditions: Conversion of catalase activity to haloperoxidase activity of 10150-Cl with the addition of thiocyanate (SCN). Oxygen formation was followed with an oxygen selective electrode in a reaction mixture containing 10150 at either 25 or 50 μM and 1 mM H2O2 in the presence or absence of 1 mM SCN.
# [3] = stated as known; cited from earlier work
# [4] = test system: Human bronchial epithelial cells (HBE); assay: Hypochlorite-induced injury of human bronchial epithelial cells, MTT viability assay; type: cell-based; conditions: 250 μM HOCl for 30 minutes, 10 μM compound, MTT 24 hours post exposure, compared to 10150-Cl or NaSCN
# Description: Bins (left to right): PBS (phosphate buffered saline); 250 uM HOCl; 250 uM HOCl+10 uM 10150-Cl; 250 uM HOCL+10 uM 10150-SCN; 250 uM HOCL+10 uM NaSCN.
# Human bronchial epithelial cells (HBE) were exposed to 250 μM of hypochlorite (HOCl) for 30 minutes in the presence or absence of 10 μM of 10150-Cl, 10150-SCN, or NaSCN and cell injury was assessed 24 hours post HOCl exposure using the MTT viability assay.
"rate constant of H2O2 consumption in the presence of 1 mM NaSCN ([1]; 12.5 μM compound, various H2O2 concentrations, 1 mM NaSCN) [min⁻¹]","rate constant of H2O2 consumption ([1]; 12.5 μM compound, various H2O2 concentrations, absence of NaSCN) [min⁻¹]","haloperoxidase activity ([2]; thiocyanate as substrate, generating HOSCN)",Compound,IC50 of lipid peroxidation (TBARS formation) (rat brain homogenates),"oxygen formation on addition of SCN ([2]; 10150 at 25 or 50 μM, 1 mM H2O2, presence vs absence of 1 mM SCN)",catalase activity (dismutation of hydrogen peroxide into oxygen and water) [3],protection against hypochlorite-mediated epithelial cell injury [4],catalase activity ([1]; comparison of the 10150-Cl and SCN salts)
0.02 ± 0.004,0.09 ± 0.004,has haloperoxidase activity,"CCN1C=CN(CC)C1=C1C2=NC(=C(c3n(CC)cc[n+]3CC)C3=NC(=C(c4n(CC)cc[n+]4CC)c4ccc([n-]4)C(c4n(CC)cc[n+]4CC)=C4C=CC1=N4)C=C3)C=C2.[Cl-].[Cl-].[Cl-].[Cl-].[Cl-].[Mn+3] [10150-Cl, [5,10,15,20 tetrakis(1,3-diethylmidazolium-2-yl)porphyrinato] manganese (III) pentachloride]",not statistically different,dramatically inhibited the formation of oxygen,known to possess catalase activity,–,–
–,–,–,"[5,10,15,20 tetrakis(1,3-diethylimidazolium-2-yl)porphyrinato] manganese (III) pentathiocyanate [10150-SCN]",not statistically different,–,–,synergistic effects,lower catalase activity than 10150-Cl salt
